Data on 1 compound can be found in PMC8704709, “Improved Anticancer Activities of a New Pentafluorothio-Substituted Vorinostat-Type Histone Deacetylase Inhibitor” (Pharmaceuticals, 2021).

In test [1] the test system is DU145 prostate tumor cells. The experiment in a line: Scratch assay (migration). The format is cell-based, human. The note with it: 5 µM and 10 µM, 24 h. As for the experimental part:
To investigate the anti-migratory effects of SF5-SAHA scratch assays were performed as described. In brief, cells were grown to sub-confluency in 6-well plates. The cell monolayer was then scratched using a pipet tip. Cells at the edge of this artificial gap migrate into the cell-free area to close the gap in a time-dependent manner. DU145 cells were seeded at a density 1.5 × 10^5 cells/well and treated with SF5-SAHA (0–10 µM) for 24 h and bright-field images were taken before and after 12 h and 24 h of treatment using a an EVOS M5000 microscope (Thermo Fischer Scientific, Waltham MA, USA). The experiments were performed n = 3.

In test [2] the test system is DU145 cells. The experiment in a line: Western blot in DU145 cells (acetyl-H3, PARP, EGFR, P-mTOR). The format is cell-based, human. As for the experimental part: (§1) Western blots were performed as described earlier. Cells were seeded in 100 mm petri dishes, grown to almost confluency, treated for 24 h, washed and frozen, followed by lysis with RIPA Buffer, added with one cOmplete™ Mini protease Inhibitor tablet/10 mL (Roche), and quantification with Pierce^TM BCA Protein Assay Kit (Thermo Fisher Scientific). Thereafter protein levels were normalized to untreated controls so equal protein loading of 20 µg/lane. Laemmli Buffer and β-mercaptoethanol were added before probes were desaturated at 96 °C for 10 min. First, 7.5% or 12% SDS gels (Biorad, Munich, Germany) were loaded with proteins and electrophoresis was done. Thereafter, proteins were transferred to activated polyvinylidene difluoride membranes (PVDF) by electroblotting. Finally, the membranes were blocked with 1% BSA and incubated with primary antibodies over night at 4 °C.
(§2) Blots were washed three times with 1% TBS-Tween and incubated with anti-mouse or anti-rabbit peroxidase-coupled anti-IgG secondary antibodies (1:5000–1:10,000) at room temperature for 60 min. Subsequently, antibody bondage was illustrated using Clarity and Clarity Max ECL Western Blotting Substrates (Biorad, Munich, Germany) for detection and Celvin-S developer (Biostep, software SnapAndGo Vs 1.8.1) for development. […] Values were normalized to β-actin expression, which served as a loading control and compared to untreated control expressions which was set at 1. The mean ± SEM of the relative values to control are illustrated with Graph Pad Prism 8.

Test [3] has as its target T1, human recombinant HDAC6 (Homo sapiens, UniProt Q9UBN7).
T1 construct: purchased BPS Biosciences, San Diego, CA, USA
T1 sequence (Q9UBN7 1-1215): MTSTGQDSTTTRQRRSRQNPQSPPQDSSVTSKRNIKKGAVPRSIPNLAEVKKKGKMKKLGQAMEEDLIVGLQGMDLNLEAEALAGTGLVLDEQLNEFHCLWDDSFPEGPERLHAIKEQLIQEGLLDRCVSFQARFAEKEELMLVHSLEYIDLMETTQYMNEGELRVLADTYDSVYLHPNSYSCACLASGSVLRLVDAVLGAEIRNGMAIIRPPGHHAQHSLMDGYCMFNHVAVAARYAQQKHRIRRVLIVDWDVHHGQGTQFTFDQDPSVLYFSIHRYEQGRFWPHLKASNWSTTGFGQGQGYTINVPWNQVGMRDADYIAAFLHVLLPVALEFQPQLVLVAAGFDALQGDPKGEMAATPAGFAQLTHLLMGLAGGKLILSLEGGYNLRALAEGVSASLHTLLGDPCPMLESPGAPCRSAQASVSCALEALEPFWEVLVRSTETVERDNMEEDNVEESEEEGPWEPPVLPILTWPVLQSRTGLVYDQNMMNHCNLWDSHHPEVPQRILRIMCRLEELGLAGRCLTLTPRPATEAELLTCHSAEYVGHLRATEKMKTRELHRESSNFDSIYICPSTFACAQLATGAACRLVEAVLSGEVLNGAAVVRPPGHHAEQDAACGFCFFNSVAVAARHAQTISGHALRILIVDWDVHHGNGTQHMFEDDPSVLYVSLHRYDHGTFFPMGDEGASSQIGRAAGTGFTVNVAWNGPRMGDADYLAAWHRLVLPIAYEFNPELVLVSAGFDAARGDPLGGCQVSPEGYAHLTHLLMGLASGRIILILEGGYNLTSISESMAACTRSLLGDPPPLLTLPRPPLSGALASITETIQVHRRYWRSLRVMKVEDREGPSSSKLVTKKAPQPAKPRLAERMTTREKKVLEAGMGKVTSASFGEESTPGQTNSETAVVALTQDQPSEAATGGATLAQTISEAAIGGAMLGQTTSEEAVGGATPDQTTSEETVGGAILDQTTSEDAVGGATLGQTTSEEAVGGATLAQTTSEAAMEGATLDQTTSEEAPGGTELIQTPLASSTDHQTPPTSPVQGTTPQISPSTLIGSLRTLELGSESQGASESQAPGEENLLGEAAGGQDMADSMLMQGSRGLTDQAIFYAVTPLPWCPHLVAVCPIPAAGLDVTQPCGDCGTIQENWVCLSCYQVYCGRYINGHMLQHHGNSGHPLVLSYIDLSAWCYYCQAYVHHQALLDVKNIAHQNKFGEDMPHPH
The experiment in a line: Fluorogenic subtype-specific HDAC assay. It is filed as biochemical. The note with it: cell-free enzymatic assay, 1–10 µM.

The test system of test [4] is T-cell leukemia/lymphoma cells (Jurkat, Hut78, SMZ1, SupT11). Briefly: Western blot in T-cell leukemia/lymphoma cells (acetyl-H3, acetyl-α-tubulin). It is filed as cell-based, human. The note with it: 24 h. As for the experimental part: as §1, with “°C. […] Only the Jurkat cells had already a high level of α-tubulin in untreated cells and, thus, drug-induced changes were not detectable in these cells.” for “°C.”
Blots were washed three times with 1% TBS-Tween and incubated with anti-mouse or anti-rabbit peroxidase-coupled anti-IgG secondary antibodies (1:5000–1:10,000) at room temperature for 60 min. […]
On the technique in general: A western blot detects proteins with antibodies after separation by electrophoresis.

In test [5] the test system is Hep-G2 cells. The experiment in a line: Cytosolic ROS formation (CellROX Orange fluorescence microscopy). It is filed as cell-based, human. The note with it: 6–24 h. As for the experimental part:
(§3) Untreated cells incubated with 1.6 mM H2O2 for 30 min served as positive controls. CellROX® Orange reagent (1 µM) was applied, when adding the test compounds. Formation of ROS was measured after 3 h, 6 h, 12 h (not shown) and 24 h using ZOE™ Fluorescent Cell Imager (Biorad, Munich, Germany). n = 3 independent experiments performed in triplicate for each condition.

Test [6] has as its system DU145 cells. Described as above. It is filed as cell-based, human. To be noted: 6–24 h. As for the experimental part:
as §3

Test [7] deals with Hep-G2 cells. Briefly: Western blot in Hep-G2 cells (acetyl-H3, Apaf-1, Bcl-2). The note with it: 24 h. It is filed as cell-based, human. As for the experimental part:
as §1, with “°C. […] Only the Jurkat cells had already a high level of α-tubulin in untreated cells and, thus, drug-induced changes were not detectable in these cells.” for “°C.”
as §2

SMILES strings stand for the structures.

With `O=C(CCCCCCC(=O)Nc1ccc(S(F)(F)(F)(F)F)cc1)NO` [SF5-SAHA], in test [1], the “migratory activity (scratch assay)” value is “reduced migratory activity”. Moreover, in test [2], the “phosphorylated mTOR (P-mTOR) level” value was “reduced the level of phosphorylated (activated) mTOR”. Also, in test [2] (24 h), the EGFR protein expression entry is “significant downregulation of EGFR protein expression”, the PARP cleavage entry is listed as “detection of PARP cleavage in treated DU145 cells” and the “acetylated histone H3 level” value is “dose-dependent rise of H3 acetylation”. For the same compound, in test [3], the “HDAC6 inhibition (comparison)” value is given as “distinctly stronger HDAC6 inhibition than SAHA”. Besides, in test [4], the acetyl-α-tubulin level entry is given as “increased in a dose-dependent way in three out of four tested cell lines” and the “acetylated histone H3 level” value is “Dose-dependent increases in acetylated H3 were observed in all tested leukemia/lymphoma cancer cell lines”. Further, the “cytosolic ROS formation” value in test [5] was “pronounced time- and dose-dependent increase in cytosolic ROS”. Besides, in test [6], the “cytosolic ROS formation” value was “pronounced time- and dose-dependent increase in cytosolic ROS”. Moreover, the Bcl-2 expression entry in test [7] (2 µM and 4 µM) is “downregulated”. Moreover, the Apaf-1 expression entry in test [7] (2 and 4 µM) was “increased Apaf-1 expression”. In test [7], the “acetylated histone H3 level” value is reported as “dose-dependent rise of H3 acetylation”.
